Reference: patent publication US20170112831A1, “USE OF CCR1 ANTAGONISTS AS A TREATMENT FOR TUMORS OF THE CENTRAL NERVOUS SYSTEM” (priority 2015, published 2017)

System: GL261 murine glioma cells
Test: Microglia stimulated glioma invasion, Matrigel-coated invasion chamber coculture assay
Format: cell-based
Details: 250 nM CCR1 antagonist, 48 hours, GL261 cocultured with microglia, vs DMSO; FIG. 1
Description: Microglial stimulation of glioma invasion. CCR1 antagonists were screened using the glioblastoma cells and microglia invasion assay described below.
GL261 murine glioma cells expressing the fluorescent protein m-Cherry and microglial (MG) cells stained with cell tracker green (CMFDA; Invitrogen) were cocultured on Matrigel-coated invasion chambers (Becton, Dickinson and Company). Cells were plated at a density per invasion chamber of 100,000 labeled GL261 cells with an additional 150,000 unlabelled GL261 cells or with 50,000 unlabelled GL261 and 50,000 MG cells in M-SFM with 0.3% BSA. Invasion chambers were incubated for 48 hours in the presence of DMSO, or 250 nM of the CCR1 antagonist, after which they were fixed in 3.7% paraformaldehyde in PBS. Imaging of the cells on the bottom of the filter was performed using an AMG EVOS epifluorescent microscope. The extent of invasion was quantified by counting the number of glioblastoma cells (green) that were on the underside of the filter in at least seven 10× fields. The final number of invasive cells in the control was multiplied by 0.75 to normalize.

Cc1nnc([C@H]2CCCN2C(=O)Nc2ccc(C(F)(F)F)cc2)n1Cc1ccc(Cl)cc1 [Compound #1]
reduction in the number of invasive glioma cells: greater than 50%
